From US9156818B2, “Hepatitis C virus inhibitors” (Enanta Pharmaceuticals, Inc., priority 2009, dated 2015)

Test system: HCV 1b genotype replicon
Experiment: HCV genotype-1b replicon assay (qRT-PCR or luciferase)
Type: cell-based
Conditions: Hepatitis C virus; HCV 1b replicon cell line (SGR 11-7 or Huh-luc/neo-ET); qRT-PCR or luciferase readout; read-out: Genotype-1b replicon EC50 Range
Excerpt: HCV replicon cell lines (kindly provided by R. Bartenschlager) isolated from colonies as described by Lohman et. al. (Lohman et al. (1999) Science 285: 110-113, expressly incorporated by reference in its entirety) and used for all experiments. The HCV replicon has the nucleic acid sequence set forth in EMBL Accession No.: AJ242651, the coding sequence of which is from nucleotides 1801 to 8406.
The coding sequence of the published HCV replicon was synthesized and subsequently assembled in a modified plasmid pBR322 (Promega, Madison, Wis.) using standard molecular biology techniques. One replicon cell line (“SGR 11-7”) stably expresses HCV replicon RNA which consists of (i) the HCV 5′UTR fused to the first 12 amino acids of the capsid protein, (ii) the neomycin phosphotransferase gene (neo), (iii) the IRES from encephalomyocarditis virus (EMCV), and (iv) HCV NS2 to NS5B genes and the HCV 3′UTR. Another replicon cell line (“Huh-luc/neo-ET”) described by Vrolijk et. al. (Vrolijk et. al. (2003) Journal of Virological Methods 110:201-209, expressly incorporated by reference in its entirety) stably expresses HCV replicon RNA which consists of (i) the HCV 5′UTR fused to the first 12 amino acids of the capsid protein, (ii) the firefly luciferase reporter gene, (iii) the ubiquitin gene, (iv) the neomycin phosphotransferase gene (neo), (v) the IRES from encephalomyocarditis virus (EMCV), and (vi) HCV NS3 to NS5B genes that harbor cell culture adaptive mutations (E1202G, T12801, K1846T) and the HCV 3′UTR.
These cell lines were maintained at 37° C., 5% CO2, 100% relative humidity in DMEM (Cat#11965-084, Invitrogen), with 10% fetal calf serum (“FCS”, Invitrogen), 1% non-essential amino acids (Invitrogen), 1% of Glutamax (Invitrogen), 1% of 100× penicillin/streptomycin (Cat#15140-122, Invitrogen) and Geneticin (Cat#10131-027, Invitrogen) at 0.75 mg/ml or 0.5 mg/ml for 11-7 and Huh-luc/neo-ET cells, respectively.
EC50 values of single agent compounds and combinations were determined by HCV RNA detection using quantitative RT-PCR, according to the manufacturer's instructions, with a TAQMAN® One-Step RT-PCR Master Mix Reagents Kit (Cat# AB 4309169, Applied Biosystems) on an ABI Model 7500 thermocycler. The TaqMan primers used for detecting and quantifying HCV RNA were obtained from Integrated DNA Technologies. HCV RNA was normalized to GAPDH RNA levels in drug-treated cells, which was detected and quantified using the Human GAPDH Endogenous Control Mix (Applied Biosystems, AB 4310884E). Total cellular RNA was purified from 96-well plates using the RNAqueous 96 kit (Ambion, Cat# AM1812). Chemical agent cytotoxicity was evaluated using an MTS assay according to the manufacturer's directions (Promega).
Since clinical drug resistance often develops in viral infections following single agent therapies, there is a need to assess the additive, antagonistic, or synergistic properties of combination therapies. We use the HCV replicon system to assess the potential use of the compound of the present invention or in combination therapies with Interferon alpha, cyclosporine analogs and inhibitors targeting other HCV proteins. The acute effects of a single or combinations of drugs are studied in the “Huh-luc/neo-ET” replicon with each chemical agent titrated in an X or Y direction in a 6 point two-fold dilution curve centered around the EC50 of each drug. Briefly, replicon cells are seeded at 7,000 cells per well in 90 ul DMEM (without phenol red, Invitrogen Cat.#31053-036) per well with 10% FCS, 1% non-essential amino acids, 1% of Glutamax and 1% of 1 OOX penicillin/streptomycin and incubated overnight at 37° C., 5% CO2, 100% relative humidity. […]

SMILES	EC50
COC(=O)N[C@H](C(=O)N1CCC[C@H]1c1ncc(-c2ccc(-c3ccc(-c4cnc([C@@H]5[C@H]6CC[C@H](C6)N5C(=O)[C@@H](NC(=O)OC)C(C)C)[nH]4)cc3)cc2)[nH]1)C(C)C [Example 83]	< 1 nM
COC(=O)N[C@H](C(=O)N1CCC[C@H]1c1ncc(-c2ccc(-c3ccc(-c4cnc([C@H]5[C@@H]6CC[C@@H](C6)N5C(=O)[C@@H](NC(=O)OC)C(C)C)[nH]4)cc3)cc2)[nH]1)C(C)C [Example 246]	< 1 nM
COC(=O)N[C@H](C(=O)N1CCC[C@H]1c1nc2cc(C#Cc3ccc(-c4cnc([C@@H]5[C@H]6CC[C@H](C6)N5C(=O)[C@@H](NC(=O)OC)C(C)C)[nH]4)cc3)ccc2[nH]1)C(C)C [Example 319]	< 1 nM
COC(=O)N[C@H](C(=O)N1CCC[C@H]1c1nc(-c2ccc(C#Cc3ccc4[nH]c([C@@H]5[C@H]6CC[C@H](C6)N5C(=O)[C@@H](NC(=O)OC)C(C)C)nc4c3)cc2)c[nH]1)C(C)C [Example 338]	< 1 nM
COC(=O)N[C@H](C(=O)N1CCC[C@H]1c1nc(-c2ccc(C#Cc3ccc4[nH]c([C@@H]5C6CCC(CC6)N5C(=O)[C@@H](NC(=O)OC)C(C)C)nc4c3)cc2)c[nH]1)C(C)C [Example 344]	< 1 nM
COC(=O)N[C@H](C(=O)N1[C@@H]2CC[C@@H](C2)[C@H]1c1ncc(-c2ccc(C#Cc3ccc4[nH]c([C@@H]5[C@H]6CC[C@H](C6)N5C(=O)[C@@H](NC(=O)OC)C(C)C)nc4c3)cc2)[nH]1)C(C)C [Example 346]	< 1 nM
COC(=O)N[C@H](C(=O)N1CCC[C@H]1c1nc(-c2ccc(-c3ccc(-c4ccc5[nH]c([C@@H]6[C@H]7CC[C@H](C7)N6C(=O)[C@@H](NC(=O)OC)C(C)C)nc5c4)cc3)cc2)c[nH]1)C(C)C [Example 348]	< 1 nM
COC(=O)N[C@H](C(=O)N1CCC[C@H]1c1nc(-c2ccc3cc(-c4ccc5[nH]c([C@@H]6[C@H]7CC[C@H](C7)N6C(=O)[C@@H](NC(=O)OC)C(C)C)nc5c4)ccc3c2)c[nH]1)C(C)C [Example 350]	< 1 nM
